Where two headings read alike, the source gives them in different places.
Assay: Food effect PK study, two single oral 1000 mg doses of abiraterone acetate, fed (high fat) vs fasted
Format: in vivo, human
Details: for concentration at 1.017 h: read-out: Abiraterone Concentration in plasma; for clearance: read-out: Cl F obs (converted); for Vd/F: read-out: Vz F obs; for concentration at 1.033 hr: sample time 1.033 hr; for concentration at 6 hr: sample time 6.000 hr; for concentration at 8 hr: sample time 8.000 hr; for concentration at 1 hr: sample time 1.000 hr; for concentration at 7.983 hr: sample time 7.983 hr
Experimental: To measure the amount of abiraterone and abiraterone acetate in the samples, these compounds were extracted from 100 uL human plasma using solid phase extraction (SPE) with cation mixed-mode polymer cartridges. Extracts were evaporated to dryness before reconstitution and analysis. Chromatography was carried out using a Luna™ C5 column (5 μm, 50 mm×2.1 mm id) with a gradient mobile phase consisting of 10 mM ammonium acetate and 2% propan-2-ol in acetonitrile. The flow rate was 0.2 mL/min and the run time 10.5 minutes. Abiraterone and abiraterone acetate were ionized using the electrospray interface in positive ion mode. Detection of analytes was via tandem mass spectrometry (MS/MS) in the multiple reaction monitoring (MRM) mode.
PK modeling was conducted using a non-compartmental model, extra vascular input for plasma with WinNonLin Software®. Pharmacokinetic parameters estimated in the model include:
Based on the above results, the PK parameters for a single dose of 1000 mg/day of abiraterone acetate were further studied in the 3 subjects who were administered the 1000 mg/day dose and in 3 additional subjects. Two single oral doses (1000 mg) of abiraterone acetate were administered separately, one concomitantly with food of high fat content and one in fasting state. The first single dose was administered on day −9 with PK blood samples being taken at 1, 2, 4, 6, 8, 24, 48 and 72 hours post dose. The second single dose was administered on day −3 with PK blood samples being taken at 1, 2, 4, 6, 8, 24 and 48 hours post dose for analysis.

[1] = human, plasma, oral, 1000 mg, Patient 13, 1000 mg, Fasted
[2] = human, plasma, oral, 1000 mg, Patient 13, 1000 mg, Fed
[3] = human, plasma, oral, 1000 mg, Patient 13, Fasted
[4] = human, plasma, oral, 1000 mg, Patient 13, Fed
[5] = human, plasma, oral, 1000 mg, Patient 14, 1000 mg, Fasted
[6] = human, plasma, oral, 1000 mg, Patient 14, 1000 mg, Fed
[7] = human, plasma, oral, 1000 mg, Patient 14, Fasted
[8] = human, plasma, oral, 1000 mg, Patient 14, Fed
[9] = human, plasma, oral, 1000 mg, Patient 15, 1000 mg, Fasted
[10] = human, plasma, oral, 1000 mg, Patient 15, 1000 mg, Fed
[11] = human, plasma, oral, 1000 mg, Patient 15, Fasted
[12] = human, plasma, oral, 1000 mg, Patient 15, Fed

Abiraterone plasma levels with food in comparison with fasting (1000 mg, concomitantly with food vs fasting): higher
HL (Patient 13, 1000 mg, Fasted): 10.2 h
HL (Patient 13, 1000 mg, Fed): 10.7 h
concentration at 1.017 h (Patient 13, Fasted, 1000 mg, pre-dose (day −3)): 0.0 nM
concentration at 1.017 h (Patient 13, Fed, 1000 mg, pre-dose (day −9)): 0.0 nM
Abiraterone Concentration in plasma (Patient 13, Fed, 1000 mg, sample time 72.000 hr): BLLOQ^1
HL (Patient 14, 1000 mg, Fasted): 6.6 h
HL (Patient 14, 1000 mg, Fed): 8.8 h
concentration at 1.017 h (Patient 14, Fasted, 1000 mg, pre-dose (day −9)): 0.0 nM
Abiraterone Concentration in plasma (Patient 14, Fasted, 1000 mg, sample time 48.217 hr): BLLOQ
concentration at 1.017 h (Patient 14, Fed, 1000 mg, pre-dose (day −3)): 0.0 nM
HL (Patient 15, 1000 mg, Fasted): 6.6 h
HL (Patient 15, 1000 mg, Fed): 8.0 h
Abiraterone Concentration in plasma (Patient 15, Fasted, 1000 mg, pre-dose (day −3)): BLLOQ
concentration at 1.017 h (Patient 15, Fed, 1000 mg, pre-dose (day −9)): 0.0 nM
Abiraterone Concentration in plasma (Patient 15, Fed, 1000 mg, sample time 2.000 hr): BLLOQ
Abiraterone Concentration in plasma (Patient 15, Fed, 1000 mg, sample time 70.100 hr): BLLOQ
HL (Patient 19, 1000 mg, Fasted): 8.0 h
HL (Patient 19, 1000 mg, Fed): 10.0 h
concentration at 1.017 h (Patient 19, Fasted, 1000 mg, pre-dose (day −9)): 0.0 nM
Abiraterone Concentration in plasma (Patient 19, Fasted, 1000 mg, sample time 71.950 hr): BLLOQ
concentration at 1.017 h (Patient 19, Fed, 1000 mg, pre-dose (day −3)): 0.0 nM
HL (Patient 20, 1000 mg, Fasted): 15.3 h
HL (Patient 20, 1000 mg, Fed): 18.3 h
concentration at 1.017 h (Patient 20, Fasted, 1000 mg, pre-dose (day −3)): 5.1 nM
Abiraterone Concentration in plasma (Patient 20, Fed, 1000 mg, pre-dose (day −9)): BLLOQ
HL (Patient 21, 1000 mg, Fasted): 12.6 h
HL (Patient 21, 1000 mg, Fed): 9.7 h
concentration at 1.017 h (Patient 21, Fasted, 1000 mg, pre-dose (day −9)): 0 nM
Abiraterone Concentration in plasma (Patient 21, Fed, 1000 mg, pre-dose (day −3)): BLLOQ
difference in mean drug levels between the dosing regimes (fed vs fasted) (extended cohort of six patients): Up to a two fold difference
clearance [1]: 12600 mL/min
Vd/F [1]: 11100 L
clearance [2]: 4240 mL/min
Vd/F [2]: 3920 L
AUC(0-inf) [3]: 3.78 µM·h
AUC(0-t) [3]: 3.7 µM·h
Cmax [3]: 548 nM
Tmax [3]: 1.03 h
concentration at 1.033 hr [3]: 548 nM
concentration at 2.017 hr (human, plasma, oral, 1000 mg, Patient 13, Fasted, sample time 2.017 hr): 500 nM
concentration at 4 hr (human, plasma, oral, 1000 mg, Patient 13, Fasted, sample time 4.000 hr): 304 nM
concentration at 6 hr [3]: 104 nM
concentration at 8 hr [3]: 89.4 nM
concentration at 24.667 hr (human, plasma, oral, 1000 mg, Patient 13, Fasted, sample time 24.667 hr): 34.1 nM
concentration at 48.117 hr (human, plasma, oral, 1000 mg, Patient 13, Fasted, sample time 48.117 hr): 5.8 nM
AUC(0-inf) [4]: 11.2 µM·h
AUC(0-t) [4]: 10.8 µM·h
Cmax [4]: 1180 nM
Tmax [4]: 4 h
concentration at 1 hr [4]: 130 nM
concentration at 2 h (human, plasma, oral, 1000 mg, Patient 13, Fed, sample time 2.000 hr): 675 nM
concentration at 4 h (human, plasma, oral, 1000 mg, Patient 13, Fed, sample time 4.000 hr): 1180 nM
concentration at 7.983 hr [4]: 392 nM
concentration at 23.983 hr (human, plasma, oral, 1000 mg, Patient 13, Fed, sample time 23.983 hr): 93.7 nM
concentration at 48.5 hr (human, plasma, oral, 1000 mg, Patient 13, Fed, sample time 48.500 hr): 26.8 nM
clearance [5]: 32600 mL/min
Vd/F [5]: 18500 L
clearance [6]: 4050 mL/min
Vd/F [6]: 3070 L
AUC(0-inf) [7]: 1.46 µM·h
AUC(0-t) [7]: 1.35 µM·h
Cmax [7]: 205 nM
Tmax [7]: 4.07 h
concentration at 1 hr [7]: 76.3 nM
concentration at 2 hr (human, plasma, oral, 1000 mg, Patient 14, Fasted, sample time 2.000 hr): 82.5 nM
concentration at 4.067 hr (human, plasma, oral, 1000 mg, Patient 14, Fasted, sample time 4.067 hr): 205 nM
concentration at 6.05 hr (human, plasma, oral, 1000 mg, Patient 14, Fasted, sample time 6.050 hr): 99.8 nM
concentration at 8.017 hr (human, plasma, oral, 1000 mg, Patient 14, Fasted, sample time 8.017 hr): 48.6 nM
concentration at 24.017 hr (human, plasma, oral, 1000 mg, Patient 14, Fasted, sample time 24.017 hr): 12.1 nM
concentration at 71.333 hr (human, plasma, oral, 1000 mg, Patient 14, Fasted, sample time 71.333 hr): 0 nM
AUC(0-inf) [8]: 11.8 µM·h
AUC(0-t) [8]: 11.6 µM·h
Cmax [8]: 2210 nM
Tmax [8]: 1.03 h
concentration at 1.033 hr [8]: 2210 nM
concentration at 2.033 hr (human, plasma, oral, 1000 mg, Patient 14, Fed, sample time 2.033 hr): 1770 nM
concentration at 4 hr (human, plasma, oral, 1000 mg, Patient 14, Fed, sample time 4.000 hr): 464 nM
concentration at 6 hr [8]: 516 nM
concentration at 7.983 hr [8]: 335 nM
concentration at 24.083 hr (human, plasma, oral, 1000 mg, Patient 14, Fed, sample time 24.083 hr): 79.7 nM
concentration at 47.7 hr (human, plasma, oral, 1000 mg, Patient 14, Fed, sample time 47.700 hr): 14.2 nM
clearance [9]: 18400 mL/min
Vd/F [9]: 10500 L
clearance [10]: 4610 mL/min
Vd/F [10]: 3190 L
AUC(0-inf) [11]: 2.59 µM·h
AUC(0-t) [11]: 2.37 µM·h
Cmax [11]: 420 nM
Tmax [11]: 2.98 h
concentration at 1 hr [11]: 8.7 nM
concentration at 2.983 hr (human, plasma, oral, 1000 mg, Patient 15, Fasted, sample time 2.983 hr): 420 nM
concentration at 3.967 hr (human, plasma, oral, 1000 mg, Patient 15, Fasted, sample time 3.967 hr): 242 nM
concentration at 5.983 hr (human, plasma, oral, 1000 mg, Patient 15, Fasted, sample time 5.983 hr): 131 nM
concentration at 8 hr [11]: 111 nM
concentration at 22.983 hr (human, plasma, oral, 1000 mg, Patient 15, Fasted, sample time 22.983 hr): 22.4 nM
AUC(0-inf) [12]: 10.3 µM·h
AUC(0-t) [12]: 10.1 µM·h
Cmax [12]: 1120 nM
Tmax [12]: 6.08 h
concentration at 1 hr [12]: 0 nM
SMILES: C[C@]12CC[C@H](O)CC1=CC[C@@H]1[C@@H]2CC[C@]2(C)C(c3cccnc3)=CC[C@@H]12 [Abiraterone]
